We go through two compounds from article PMC8865417, “Receptor Interaction Profiles of 4-Alkoxy-3,5-Dimethoxy-Phenethylamines (Mescaline Derivatives) and Related Amphetamines” (Frontiers in Pharmacology, 2022).

What is called Ki is a dissociation constant, usually derived from enzyme kinetics or from competition with a known ligand. Broadly, the EC50 is the concentration that produces a half-maximal response.

In test [1] the target is T1, hDAT (Homo sapiens, UniProt Q01959).
T1 construct: expressed in transfected cells; host or cells: HEK 293 cells (membrane preparations)
Also noted: method as in Simmler et al. (2013). Particulars: reference substance; ref Simmler et al. (2013); cited from earlier work.

Test [2] has as its target T2, mouse TAAR1 (Mus musculus, UniProt Q923Y8).
T2 construct: expressed in transfected cells; host or cells: HEK 293 cells (membrane preparations)
Also noted: method as in Simmler et al. (2013). The note with it: reference substance; ref Simmler et al. (2013); read-out: mTAAR1 Ki; cited from earlier work.

The target of test [3] is T3, rat TAAR1 (Rattus norvegicus, UniProt Q923Y9).
T3 construct: expressed in transfected cells; host or cells: HEK 293 cells (membrane preparations)
On the set-up: method as in Simmler et al. (2013). The note with it: reference substance; ref Simmler et al. (2013); read-out: rTAAR1 Ki; cited from earlier work.

Test [4] addresses T4, dopaminergic hD2 receptor (Homo sapiens, UniProt P14416).
T4 construct: expressed in transfected cells; host or cells: HEK 293 cells (membrane preparations)
Also noted: method as in Simmler et al. (2013). Particulars: reference substance; ref Simmler et al. (2013); cited from earlier work.

For test [5], the target named is T5, hSERT (Homo sapiens, UniProt P31645).
T5 construct: expressed in transfected cells; host or cells: HEK 293 cells (membrane preparations)
Also noted: method as in Simmler et al. (2013). The note with it: reference substance; ref Simmler et al. (2013); cited from earlier work.

In test [6] the target is T6, hNET (Homo sapiens, UniProt P23975).
T6 construct: expressed in transfected cells; host or cells: HEK 293 cells (membrane preparations)
Also noted: method as in Simmler et al. (2013). The note with it: reference substance; ref Simmler et al. (2013); cited from earlier work.

Test [7] addresses T7, hα1A adrenergic receptor (Homo sapiens, UniProt P35348).
T7 construct: expressed in transfected cells; host or cells: Chinese hamster ovary cells (membrane preparations)
T7 sequence (P35348 1-466): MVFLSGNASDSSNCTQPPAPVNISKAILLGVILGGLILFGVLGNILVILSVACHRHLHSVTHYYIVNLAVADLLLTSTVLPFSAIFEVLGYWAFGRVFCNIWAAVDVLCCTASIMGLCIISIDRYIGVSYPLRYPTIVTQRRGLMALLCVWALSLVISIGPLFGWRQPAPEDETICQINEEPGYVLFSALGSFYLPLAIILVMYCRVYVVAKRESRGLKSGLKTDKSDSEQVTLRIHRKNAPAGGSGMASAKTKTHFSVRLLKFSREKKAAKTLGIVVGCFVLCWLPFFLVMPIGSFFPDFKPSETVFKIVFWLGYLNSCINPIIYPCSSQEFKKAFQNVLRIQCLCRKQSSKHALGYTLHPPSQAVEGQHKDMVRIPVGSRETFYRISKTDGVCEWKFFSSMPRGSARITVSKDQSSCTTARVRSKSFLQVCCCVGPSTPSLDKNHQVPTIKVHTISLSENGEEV
On the set-up: method as in Simmler et al. (2013). Particulars: reference substance; ref Simmler et al. (2013); cited from earlier work.

Test [8] addresses T8, hα2A adrenergic receptor (Homo sapiens, UniProt P08913).
T8 construct: expressed in transfected cells; host or cells: Chinese hamster lung cells (membrane preparations)
T8 sequence (P08913 1-465): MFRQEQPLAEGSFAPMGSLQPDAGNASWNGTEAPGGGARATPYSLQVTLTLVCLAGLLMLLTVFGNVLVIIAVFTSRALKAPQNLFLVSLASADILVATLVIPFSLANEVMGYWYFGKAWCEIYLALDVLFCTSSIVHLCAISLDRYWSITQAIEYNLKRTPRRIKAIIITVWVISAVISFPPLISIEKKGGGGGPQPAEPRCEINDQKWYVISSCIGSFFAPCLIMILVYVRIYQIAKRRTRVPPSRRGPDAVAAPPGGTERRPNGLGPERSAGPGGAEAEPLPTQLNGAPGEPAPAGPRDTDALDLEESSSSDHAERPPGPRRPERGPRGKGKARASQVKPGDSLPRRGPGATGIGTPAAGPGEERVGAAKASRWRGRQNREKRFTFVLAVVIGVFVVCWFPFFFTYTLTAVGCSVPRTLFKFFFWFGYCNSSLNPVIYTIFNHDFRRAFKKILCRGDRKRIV
On the set-up: method as in Simmler et al. (2013). Particulars: reference substance; ref Simmler et al. (2013); cited from earlier work.

For test [9], the target named is T1, hDAT. The test can be described thus: Radioligand binding at hDAT ([3H]WIN35,428).
The target in test [10] is T2, mouse TAAR1. As to the kind of experiment: Radioligand binding at mouse TAAR1 ([3H]RO5166017).
The target in the next test is human 5-HT2B receptor (Homo sapiens, UniProt P41595). Particulars: h5-HT2B Activation potency EC50 ± SD, HEK 293 cells, calcium FLIPR; mean ± SD.
Test [11] addresses T5, hSERT. As to the kind of experiment: Radioligand binding at hSERT ([3H]citalopram).
The target in the next test is T9, h5-HT2C receptor (Homo sapiens, UniProt P28335).
T9 construct: expressed in transfected cells; host or cells: HEK 293 cells (membrane preparations)
T9 sequence (P28335 33-458): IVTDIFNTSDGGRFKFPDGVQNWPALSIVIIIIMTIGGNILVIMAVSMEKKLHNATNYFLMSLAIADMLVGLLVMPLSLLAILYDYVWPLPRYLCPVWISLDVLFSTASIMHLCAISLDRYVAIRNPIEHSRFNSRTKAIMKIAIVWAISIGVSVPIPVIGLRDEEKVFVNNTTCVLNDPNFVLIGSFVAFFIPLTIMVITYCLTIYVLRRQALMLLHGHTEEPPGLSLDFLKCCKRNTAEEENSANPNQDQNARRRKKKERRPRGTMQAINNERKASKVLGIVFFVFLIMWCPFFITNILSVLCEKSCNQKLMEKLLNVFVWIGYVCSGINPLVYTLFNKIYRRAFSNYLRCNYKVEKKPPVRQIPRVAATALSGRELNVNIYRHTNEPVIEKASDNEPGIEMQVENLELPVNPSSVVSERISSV
The test can be described thus: biochemical. The class given is binding. The note with it: [3H]mesulergine; mean ± SD; read-out: h5-HT2C Receptor binding Ki ± SD.

The target of the next test is T10, h5-HT2A receptor (Homo sapiens, UniProt P28223).
T10 construct: expressed in transfected cells; host or cells: HEK 293 cells (membrane preparations)
The test can be described thus: Radioligand binding at h5-HT2A receptor ([3H]ketanserin). The note with it: h5-HT2A Receptor binding Ki ± SD, [3H]ketanserin; mean ± SD.

Test [12] addresses T7, hα1A adrenergic receptor. As to the kind of experiment: Radioligand binding at hα1A adrenergic receptor ([3H]prazosin). Particulars: mean ± SD.
The target in test [13] is T6, hNET. As to the kind of experiment: Radioligand binding at hNET (N-methyl-[3H]nisoxetine).
The target in test [14] is T3, rat TAAR1. The test can be described thus: Radioligand binding at rat TAAR1 ([3H]RO5166017).
The target in another test is T11, h5-HT1A receptor (Homo sapiens, UniProt P08908).
T11 construct: expressed in transfected cells; host or cells: HEK 293 cells (membrane preparations)
T11 sequence (P08908 1-422): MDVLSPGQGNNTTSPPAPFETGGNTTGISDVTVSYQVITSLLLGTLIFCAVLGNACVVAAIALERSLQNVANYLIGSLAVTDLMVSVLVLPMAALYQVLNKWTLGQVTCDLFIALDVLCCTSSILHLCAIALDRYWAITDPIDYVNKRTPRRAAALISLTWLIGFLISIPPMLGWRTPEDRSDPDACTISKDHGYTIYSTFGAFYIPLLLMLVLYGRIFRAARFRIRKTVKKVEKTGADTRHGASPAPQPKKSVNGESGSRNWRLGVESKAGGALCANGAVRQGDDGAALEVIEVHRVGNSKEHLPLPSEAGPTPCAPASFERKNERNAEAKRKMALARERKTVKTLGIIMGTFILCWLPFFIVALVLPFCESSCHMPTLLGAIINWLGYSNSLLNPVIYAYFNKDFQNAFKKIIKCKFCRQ
The test can be described thus: Radioligand binding at h5-HT1A receptor ([3H]8-OH-DPAT).

The target in test [15] is T4, dopaminergic hD2 receptor. As to the kind of experiment: Radioligand binding at dopaminergic hD2 receptor ([3H]spiperone).
The next test has as its target human 5-HT2A receptor (Homo sapiens, UniProt P28223). Also noted: expressed in transfected cells; host or cells: NIH-3T3 cells (mouse embryonic fibroblasts). The note with it: read-out: h5-HT2A Activation potency EC50 ± SD; mescaline; ref Rickli et al. (2016); cited from earlier work.
The target of test [16] is T8, hα2A adrenergic receptor. As to the kind of experiment: Radioligand binding at hα2A adrenergic receptor ([3H]rauwolscine).
The test system of another test is humans. Particulars: ref Shulgin and Shulgin 1991, cited from earlier work.

Where two headings read alike, the source gives them in different places. Where only a bound is given, the exact number is not on record here.

T1 sequence (Q01959 whole entry): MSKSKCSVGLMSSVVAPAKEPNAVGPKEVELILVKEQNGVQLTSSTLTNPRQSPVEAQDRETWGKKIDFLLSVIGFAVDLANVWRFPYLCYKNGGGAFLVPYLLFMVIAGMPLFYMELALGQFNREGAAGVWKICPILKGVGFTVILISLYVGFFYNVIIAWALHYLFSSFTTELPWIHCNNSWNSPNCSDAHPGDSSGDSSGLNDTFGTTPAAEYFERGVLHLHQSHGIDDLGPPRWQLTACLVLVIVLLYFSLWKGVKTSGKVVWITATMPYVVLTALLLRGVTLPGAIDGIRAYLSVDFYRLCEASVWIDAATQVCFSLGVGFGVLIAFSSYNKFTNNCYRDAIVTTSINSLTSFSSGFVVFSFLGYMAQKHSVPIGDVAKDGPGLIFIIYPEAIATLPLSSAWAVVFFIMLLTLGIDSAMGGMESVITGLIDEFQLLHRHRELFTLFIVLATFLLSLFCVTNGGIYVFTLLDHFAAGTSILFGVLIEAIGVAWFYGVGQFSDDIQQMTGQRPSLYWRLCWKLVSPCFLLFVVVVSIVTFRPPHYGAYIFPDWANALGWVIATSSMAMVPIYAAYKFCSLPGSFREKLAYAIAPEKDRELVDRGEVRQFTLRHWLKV
T5 sequence (P31645 whole entry): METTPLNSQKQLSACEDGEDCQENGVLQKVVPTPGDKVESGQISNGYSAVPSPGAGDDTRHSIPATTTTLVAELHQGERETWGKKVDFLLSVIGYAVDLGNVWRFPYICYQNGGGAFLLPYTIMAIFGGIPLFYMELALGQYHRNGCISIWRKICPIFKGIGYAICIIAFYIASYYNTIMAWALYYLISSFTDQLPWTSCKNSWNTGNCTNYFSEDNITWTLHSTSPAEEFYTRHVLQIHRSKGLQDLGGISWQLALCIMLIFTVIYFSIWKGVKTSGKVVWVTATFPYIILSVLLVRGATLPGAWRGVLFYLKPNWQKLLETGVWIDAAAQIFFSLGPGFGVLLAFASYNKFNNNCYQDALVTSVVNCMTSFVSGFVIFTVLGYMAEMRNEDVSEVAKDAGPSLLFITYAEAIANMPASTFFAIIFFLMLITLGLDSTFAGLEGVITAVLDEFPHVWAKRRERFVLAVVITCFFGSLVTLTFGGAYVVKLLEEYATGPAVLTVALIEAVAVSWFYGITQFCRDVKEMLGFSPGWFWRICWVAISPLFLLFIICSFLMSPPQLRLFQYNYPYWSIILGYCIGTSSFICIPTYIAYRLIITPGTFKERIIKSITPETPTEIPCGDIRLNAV
T2 sequence (Q923Y8 whole entry): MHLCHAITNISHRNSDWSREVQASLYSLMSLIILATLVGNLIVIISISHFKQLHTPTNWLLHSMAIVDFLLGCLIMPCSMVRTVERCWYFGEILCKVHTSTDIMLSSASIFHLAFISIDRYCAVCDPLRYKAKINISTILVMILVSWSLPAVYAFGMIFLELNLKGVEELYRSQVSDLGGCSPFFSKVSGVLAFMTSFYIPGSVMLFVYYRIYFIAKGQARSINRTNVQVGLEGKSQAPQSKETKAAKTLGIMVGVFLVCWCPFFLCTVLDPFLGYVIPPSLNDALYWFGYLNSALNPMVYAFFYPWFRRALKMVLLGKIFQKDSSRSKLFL
T3 sequence (Q923Y9 whole entry): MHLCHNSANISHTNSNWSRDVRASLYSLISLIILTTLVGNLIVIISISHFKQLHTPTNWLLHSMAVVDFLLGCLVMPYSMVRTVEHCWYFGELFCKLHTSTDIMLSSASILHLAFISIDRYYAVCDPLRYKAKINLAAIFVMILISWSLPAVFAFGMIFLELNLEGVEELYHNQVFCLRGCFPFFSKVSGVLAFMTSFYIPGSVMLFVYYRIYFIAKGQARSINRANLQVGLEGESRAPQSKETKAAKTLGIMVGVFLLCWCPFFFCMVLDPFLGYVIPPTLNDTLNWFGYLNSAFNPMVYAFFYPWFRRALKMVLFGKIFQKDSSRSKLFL
T6 sequence (P23975 whole entry): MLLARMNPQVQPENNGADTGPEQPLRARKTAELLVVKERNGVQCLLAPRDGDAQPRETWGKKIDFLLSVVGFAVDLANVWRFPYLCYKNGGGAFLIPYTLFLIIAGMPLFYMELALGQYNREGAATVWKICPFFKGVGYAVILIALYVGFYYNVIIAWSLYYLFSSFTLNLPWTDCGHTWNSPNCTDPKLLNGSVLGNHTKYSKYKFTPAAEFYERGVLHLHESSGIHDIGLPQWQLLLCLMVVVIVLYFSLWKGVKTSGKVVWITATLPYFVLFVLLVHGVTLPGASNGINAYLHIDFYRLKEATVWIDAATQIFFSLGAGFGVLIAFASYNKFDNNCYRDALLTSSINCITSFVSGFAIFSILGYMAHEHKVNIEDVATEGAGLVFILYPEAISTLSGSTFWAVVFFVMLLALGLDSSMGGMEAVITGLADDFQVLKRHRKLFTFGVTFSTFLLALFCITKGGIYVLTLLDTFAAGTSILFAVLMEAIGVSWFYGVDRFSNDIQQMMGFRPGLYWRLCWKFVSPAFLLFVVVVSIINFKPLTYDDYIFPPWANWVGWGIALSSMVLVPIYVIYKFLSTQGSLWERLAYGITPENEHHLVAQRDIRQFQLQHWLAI
T4 sequence (P14416 whole entry): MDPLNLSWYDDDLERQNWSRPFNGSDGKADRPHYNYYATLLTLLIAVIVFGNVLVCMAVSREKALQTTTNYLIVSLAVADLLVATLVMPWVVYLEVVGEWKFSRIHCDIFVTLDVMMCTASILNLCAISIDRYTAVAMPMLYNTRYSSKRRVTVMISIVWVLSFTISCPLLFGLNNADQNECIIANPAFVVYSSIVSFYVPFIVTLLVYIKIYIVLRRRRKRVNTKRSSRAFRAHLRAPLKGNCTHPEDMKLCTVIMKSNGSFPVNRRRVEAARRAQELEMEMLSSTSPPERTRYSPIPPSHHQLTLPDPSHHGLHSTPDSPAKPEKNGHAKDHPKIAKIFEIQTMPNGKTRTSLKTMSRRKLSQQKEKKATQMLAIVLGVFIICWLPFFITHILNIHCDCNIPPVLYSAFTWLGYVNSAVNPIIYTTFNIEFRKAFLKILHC
Chain of human 5-HT2B receptor (P41595 whole entry): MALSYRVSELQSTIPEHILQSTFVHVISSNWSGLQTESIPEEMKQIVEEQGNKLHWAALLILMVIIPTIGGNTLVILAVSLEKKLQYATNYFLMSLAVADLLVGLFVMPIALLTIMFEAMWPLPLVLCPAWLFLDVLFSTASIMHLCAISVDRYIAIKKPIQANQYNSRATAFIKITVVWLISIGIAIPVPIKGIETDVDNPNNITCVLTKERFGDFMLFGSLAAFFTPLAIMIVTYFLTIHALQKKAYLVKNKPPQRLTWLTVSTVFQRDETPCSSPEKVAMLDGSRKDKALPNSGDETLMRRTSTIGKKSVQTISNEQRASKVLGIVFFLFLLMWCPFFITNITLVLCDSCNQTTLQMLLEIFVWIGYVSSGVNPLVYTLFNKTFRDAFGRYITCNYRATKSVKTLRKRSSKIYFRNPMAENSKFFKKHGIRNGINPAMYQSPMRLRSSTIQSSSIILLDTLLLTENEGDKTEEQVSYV
T10 sequence (P28223 whole entry): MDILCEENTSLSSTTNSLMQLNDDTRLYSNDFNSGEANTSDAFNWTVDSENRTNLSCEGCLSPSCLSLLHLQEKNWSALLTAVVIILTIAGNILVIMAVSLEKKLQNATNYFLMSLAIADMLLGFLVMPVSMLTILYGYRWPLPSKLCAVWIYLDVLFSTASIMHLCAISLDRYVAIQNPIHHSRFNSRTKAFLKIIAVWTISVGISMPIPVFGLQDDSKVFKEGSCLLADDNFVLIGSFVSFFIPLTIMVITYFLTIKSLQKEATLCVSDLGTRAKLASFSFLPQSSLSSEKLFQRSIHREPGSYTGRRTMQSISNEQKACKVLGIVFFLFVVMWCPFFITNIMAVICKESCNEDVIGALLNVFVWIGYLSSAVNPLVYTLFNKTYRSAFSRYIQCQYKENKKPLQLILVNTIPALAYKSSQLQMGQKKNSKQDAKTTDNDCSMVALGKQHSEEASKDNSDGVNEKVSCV
Chain of human 5-HT2A receptor (P28223 whole entry): as above

As to `CNC(C)Cc1ccc2c(c1)OCO2` (stereo not drawn) [MDMA], the inhibition constant (Ki) on hDAT [1] was over 8.5 µM; at mouse TAAR1 [2], 2.4 µM; at rat TAAR1 [3], 0.37 ± 0.12 µM; in test [4], over 6.3 µM; on hSERT [5] it was over 7.5 µM; on hNET [6] it was over 9.7 µM. Moreover, the Ki at hα1A adrenergic receptor [7] is over 8.7 µM; on hα2A adrenergic receptor [8], over 5.1 µM.
For the compound `COc1cc(CCN)cc(OC)c1OC` [compound 5, 3,4,5-trimethoxyphenethylamine], the Ki at hDAT [9] is over 8.5 µM; at mouse TAAR1 [10] it was over 4.2 µM; at hSERT [11] it was over 7.5 µM; on h5-HT2C receptor, 9.9 µM; on h5-HT2A receptor, 9.4 µM; on hα1A adrenergic receptor [12], over 8.7 µM. Further, the Ki on hNET [13] is over 9.7 µM; on rat TAAR1 [14] it was 3 µM; on h5-HT1A receptor it was 6.7 µM; in [15], over 6.3 µM; at hα2A adrenergic receptor [16], 2 µM. Besides, the values for the EC50 on human 5-HT2B receptor and at human 5-HT2A receptor were over 10 µM and 10 µM, respectively. The Duration of action with humans (humans, Shulgin and Shulgin 1997, Trachsel et al., 2013, listed as mescaline) was 8 to 12 h. Also, in the test with humans (psychedelic dose in humans, Shulgin and Shulgin 1997, Trachsel et al., 2013), the Human oral dose was 180 to 360 mg. The “Psychedelic / active dose in humans” value with humans is 180 to 360 mg.
